{
  "source": "patent US8034936B2",
  "about": "“Spirocyclic cyclohexane compounds useful to treat substance dependency” (Gruenenthal GmbH, priority 2005, dated 2011)",
  "key": {"HERG channel": {"target": "HERG channel (Homo sapiens, UniProt Q12809)", "sequence (Q12809 whole entry)": "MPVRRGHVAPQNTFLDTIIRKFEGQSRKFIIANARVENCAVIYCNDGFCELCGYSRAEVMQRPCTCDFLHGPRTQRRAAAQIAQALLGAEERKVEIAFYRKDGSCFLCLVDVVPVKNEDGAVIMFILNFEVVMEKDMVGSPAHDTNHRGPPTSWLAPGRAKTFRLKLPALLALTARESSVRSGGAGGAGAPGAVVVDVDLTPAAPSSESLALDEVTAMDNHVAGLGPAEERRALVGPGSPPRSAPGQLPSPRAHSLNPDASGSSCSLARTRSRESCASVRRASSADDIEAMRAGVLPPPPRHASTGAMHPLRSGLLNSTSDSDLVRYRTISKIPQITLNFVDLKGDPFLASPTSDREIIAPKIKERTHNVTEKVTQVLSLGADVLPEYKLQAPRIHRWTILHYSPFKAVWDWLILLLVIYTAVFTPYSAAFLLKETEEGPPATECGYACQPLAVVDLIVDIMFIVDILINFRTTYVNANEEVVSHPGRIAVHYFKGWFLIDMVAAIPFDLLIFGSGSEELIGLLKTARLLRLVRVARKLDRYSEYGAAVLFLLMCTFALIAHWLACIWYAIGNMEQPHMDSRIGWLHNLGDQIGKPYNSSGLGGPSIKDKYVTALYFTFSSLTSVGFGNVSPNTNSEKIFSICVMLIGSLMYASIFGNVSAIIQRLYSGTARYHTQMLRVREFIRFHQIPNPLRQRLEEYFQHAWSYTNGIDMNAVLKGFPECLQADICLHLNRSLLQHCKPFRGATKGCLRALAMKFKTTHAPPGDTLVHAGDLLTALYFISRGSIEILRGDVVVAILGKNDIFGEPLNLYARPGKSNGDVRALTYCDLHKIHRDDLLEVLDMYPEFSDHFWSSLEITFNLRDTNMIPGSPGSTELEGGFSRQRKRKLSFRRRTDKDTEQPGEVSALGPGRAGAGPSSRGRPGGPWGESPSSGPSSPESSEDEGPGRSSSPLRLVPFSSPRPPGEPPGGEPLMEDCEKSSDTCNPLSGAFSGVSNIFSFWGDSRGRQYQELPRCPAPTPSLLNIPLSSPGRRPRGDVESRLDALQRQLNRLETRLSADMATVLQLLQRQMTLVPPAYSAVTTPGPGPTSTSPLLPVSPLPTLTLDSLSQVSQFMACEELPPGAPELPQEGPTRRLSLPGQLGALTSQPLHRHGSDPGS", "settings": "read-out: IC50, HERG channel; Katchman et al. 2002; cited from earlier work"}, "human μ-opiate receptor": {"target": "human μ-opiate receptor (Homo sapiens, UniProt P35372)", "sequence (P35372 whole entry)": "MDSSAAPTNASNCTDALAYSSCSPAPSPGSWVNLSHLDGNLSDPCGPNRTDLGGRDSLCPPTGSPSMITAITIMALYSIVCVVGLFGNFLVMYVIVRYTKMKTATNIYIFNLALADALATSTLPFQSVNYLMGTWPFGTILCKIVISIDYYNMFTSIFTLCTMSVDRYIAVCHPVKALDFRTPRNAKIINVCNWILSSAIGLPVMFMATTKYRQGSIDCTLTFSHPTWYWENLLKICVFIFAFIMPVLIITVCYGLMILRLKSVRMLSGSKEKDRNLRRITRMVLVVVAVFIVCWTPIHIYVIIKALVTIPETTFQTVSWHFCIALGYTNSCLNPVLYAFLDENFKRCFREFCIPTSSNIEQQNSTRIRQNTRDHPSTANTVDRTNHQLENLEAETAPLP", "assay": "μ-opiate receptor binding, [3H]-naloxone displacement, CHO-K1 membrane preparation", "settings": "No. 1-49"}, "mice": {"system": "mice", "settings": "mouse, in vivo, ip, 30 mg/kg"}},
  "data": [
    {"smiles": "CCC(=O)C(CC(C)N(C)C)(c1ccccc1)c1ccccc1", "note": "(racemic) [methadone]", "values": [
      {"measurement": "IC50", "setting": "HERG channel", "result": 9.8, "unit": "µM"}
    ]},
    {"smiles": "CN(C)C1(c2ccccc2)CCC2(CC1)NCCc1c2oc2ccccc12", "note": "(stereo not drawn) [Example 12, 1,1-(3-dimethylamino-3-phenylpentamethylene)-1,3,4,9-tetrahydro-2-aza-9-oxafluorene]", "values": [
      {"measurement": "Ki", "setting": "human μ-opiate receptor", "result": 0.17, "unit": "µM"}
    ]},
    {"smiles": "CCC(=O)C(C[C@@H](C)N(C)C)(c1ccccc1)c1ccccc1", "note": "[Levomethadone, levomethadone]", "values": [
      {"measurement": "withdrawal jumping triggered by naloxone", "setting": "mice", "result": "induced withdrawal jumping"}
    ]}
  ]
}
